Legend:
KCNQ4 [1] = test: SaCas9/gRNA knockdown of KCNQ4 in HEK cells, western blot, TIDE, immunofluorescence (FIG. 10); type: cell-based, human; settings: western blot and immunofluorescence analyses (data not shown)
Source text: The present example describes a targeting strategy that knocks out both KCNQ4 alleles and replaces wild-type KCNQ4 with a codon-optimized KCNQ4 using a SaCas9/gRNA strategy FIG. (FIG. 9). The present example also describes an in vitro analysis of KCNQ4 knockdown in HEK cells via Western blot and quantitative PCR.
The following guides were transfected with SaCas9 and KCNQ4 DNA to determine knockdown efficiency: sg233Fw (lane 2), sg386Fw (lane 3), sg408Rev (lane 4), sg447Fw(lane 5), sg482Fw (lane 6), and sg490Fw (lane 7). An untransfected control (lane 8), sgVEGF (targeting VEGF) (lane 9), and Beta-Actin expression (lanes 2-9) were used as controls. […] To expand and/or improve upon results obtained thus far, similar experiments can be performed in 3T3 cells using deadCas9 and mouse sgRNA sequences.

KCNQ4 [2] = test: shRNA- and CRISPR-mediated knockdown of KCNQ4 expression in HEK293 cells (FIG. 3, lanes); type: cell-based, human; settings: HEK293 cells with KCNQ4 construct, N=4 biological replicates
Experimental: The following shRNA constructs and KCNQ4 constructs were tested in HEK293 cells: sh395, sh909, sh1095, sh1531, sh1593, sh1677, sh1721, and sh1827 (see FIG. 3). The following constructs were tested in HEK293 cells as a positive control (e.g., as a reference for maximum knockdown of KCNQ4 that can be achieved): SaCas9+sgRNA 447Fw+KCNQ4 (lane 11). A shVEGF construct (targeting VEGF) and KCNQ4 construct were tested in HEK293 cells as a negative control (lane 10). In addition, only the KCNQ4 construct was tested in HEK293 cells as a negative control (lane 12). […] The level of expression of KCNQ4 was most reduced by sh1827 and sgRNA 447Fw in this example. FIGS. 11 and 12 each show efficacy of knockdown with each of the shRNA constructs as well as an empty shRNA construct (“Mock”). Levels of KCNQ4 were measured using quantitative PCR, normalized to GAPDH. Two independent biological replicates were performed (FIGS. 11 and 12), each of which had three replicates per condition.

Substance: sgRNA 386Fw: gRNA targeting KCNQ4, SEQ ID NO: 42, target AGGAGCACCAGGAACTTGCCA (expressed or natural sequence)
- inhibition of KCNQ4 expression relative to other sgRNAs (KCNQ4 [1]): inhibited KNCQ4 expression more than other sgRNAs

Substance: sgRNA 408Rev: gRNA targeting KCNQ4, SEQ ID NO: 43, target AAGCCGAAAACCACGATCATC (expressed or natural sequence)
- inhibition of KCNQ4 expression relative to other sgRNAs (KCNQ4 [1]): inhibited KNCQ4 expression more than other sgRNAs

Substance: sgRNA 447Fw: gRNA targeting KCNQ4, SEQ ID NO: 45, target TTTCGGCTTGGAGTACATCGT; used with SaCas9 (expressed or natural sequence)
- level of expression of KCNQ4 (KCNQ4 [2]): most reduced

Substance: sh1827: shRNA construct targeting KCNQ4; by order probably SEQ ID NO: 55 (GGTGGATGAAATCAGCATGATCGAAATCATGCTGATTTCATCCACC)
- level of expression of KCNQ4 (KCNQ4 [2]): most reduced

Reference: patent publication US20230212606A1, “COMPOSITIONS AND METHODS FOR TREATING KCNQ4-ASSOCIATED HEARING LOSS” (Akouos, Inc., priority 2020, published 2023)
